These results are taken from PubChem BioAssay AID1259407 (Chemical Carcinogenesis Research Information System (CCRIS), 2018).

The data set concerns CCRIS mutagenicity, Ames/micronucleus/aberration tests. As to the kind of experiment: CCRIS mutagenicity studies.
Where [1] appears, read: Test System: AMES SALMONELLA TYPHIMURIUM, Strain/Indicator: TA98, Metabolic Activation: NONE, Method: PREINCUBATION
The mark [2] stands for this setting: Test System: AMES SALMONELLA TYPHIMURIUM, Strain/Indicator: TA100, Metabolic Activation: NONE, Method: PREINCUBATION
The mark [3] stands for this setting: Test System: AMES SALMONELLA TYPHIMURIUM, Strain/Indicator: TA100, Metabolic Activation: NONE, Method: STANDARD PLATE.
The mark [4] stands for this setting: Test System: AMES SALMONELLA TYPHIMURIUM, Strain/Indicator: TA100, Metabolic Activation: RAT, LIVER, S-9, AROCLOR 1254, Method: STANDARD PLATE.
Where [5] appears, read: Test System: AMES SALMONELLA TYPHIMURIUM, Strain/Indicator: TA98, Metabolic Activation: NONE, Method: STANDARD PLATE.

The source made the active and inactive calls. No rule for the calls is given here.

`CCCCCCCCc1ccc(Nc2ccc(CCCCCCCC)cc2)cc1`: the mutagenic call reads like this: (End Point: IN VITRO CHROMOSOMAL ABERRATIONS, Test System: CHINESE HAMSTER LUNG CELLS (CHL), Metabolic Activation: NONE) “inactive; negative”; (End Point: IN VITRO CHROMOSOMAL ABERRATIONS, Test System: CHINESE HAMSTER LUNG CELLS (CHL), Metabolic Activation: RAT, LIVER, S-9, KC-400) “inactive; negative”; (End Point: IN VITRO CHROMOSOMAL ABERRATIONS, Test System: CHINESE HAMSTER OVARY CELLS (CHO), Metabolic Activation: NONE) “inactive; negative”; (End Point: IN VITRO CHROMOSOMAL ABERRATIONS, Test System: CHINESE HAMSTER OVARY CELLS (CHO), Metabolic Activation: RAT, LIVER, S-9, AROCLOR 1254) “inactive; negative”; (End Point: IN VITRO CHROMOSOMAL ABERRATIONS, Test System: CHO-LB CELLS, Metabolic Activation: NONE) “inactive; negative”; (End Point: IN VITRO CHROMOSOMAL ABERRATIONS, Test System: CHO-LB CELLS, Metabolic Activation: RAT, LIVER, S-9, AROCLOR 1254) “inactive; negative”. For the same molecule, the mutagenic call is, setting by setting: (Test System: AMES SALMONELLA TYPHIMURIUM, Strain/Indicator: TA97, Metabolic Activation: HAMSTER, LIVER, S-9, AROCLOR 1254 (10 OR 30%), Method: PREINCUBATION) “inactive; negative”; (Test System: AMES SALMONELLA TYPHIMURIUM, Strain/Indicator: TA97, Metabolic Activation: NONE, Method: PREINCUBATION) “inactive; negative”; (Test System: AMES SALMONELLA TYPHIMURIUM, Strain/Indicator: TA97, Metabolic Activation: RAT, LIVER, S-9, AROCLOR 1254 (10 OR 30%), Method: PREINCUBATION) “inactive; negative”; (Test System: AMES SALMONELLA TYPHIMURIUM, Strain/Indicator: TA98, Metabolic Activation: HAMSTER, LIVER, S-9, AROCLOR 1254 (10 OR 30%), Method: PREINCUBATION) “inactive; negative”; under setting [1], “inactive; negative”; (Test System: AMES SALMONELLA TYPHIMURIUM, Strain/Indicator: TA98, Metabolic Activation: RAT, LIVER, S-9, AROCLOR 1254 (10 OR 30%), Method: PREINCUBATION) “inactive; negative”. Also, the mutagenic call is “inactive; negative” (Test System: AMES SALMONELLA TYPHIMURIUM, Strain/Indicator: TA100, Metabolic Activation: HAMSTER, LIVER, S-9, AROCLOR 1254 (10 OR 30%), Method: PREINCUBATION); “inactive; negative” under setting [2]; “inactive; negative” (Test System: AMES SALMONELLA TYPHIMURIUM, Strain/Indicator: TA100, Metabolic Activation: RAT, LIVER, S-9, AROCLOR 1254 (10 OR 30%), Method: PREINCUBATION); “inactive; negative” (Test System: AMES SALMONELLA TYPHIMURIUM, Strain/Indicator: TA1535, Metabolic Activation: HAMSTER, LIVER, S-9, AROCLOR 1254 (10 OR 30%), Method: PREINCUBATION); “inactive; negative” (Test System: AMES SALMONELLA TYPHIMURIUM, Strain/Indicator: TA1535, Metabolic Activation: NONE, Method: PREINCUBATION); “inactive; negative” (Test System: AMES SALMONELLA TYPHIMURIUM, Strain/Indicator: TA1535, Metabolic Activation: RAT, LIVER, S-9, AROCLOR 1254 (10 OR 30%), Method: PREINCUBATION). Moreover, the mutagenic call is, setting by setting: (Test System: AMES SALMONELLA TYPHIMURIUM, Strain/Indicator: TA1537, Metabolic Activation: HAMSTER, LIVER, S-9, AROCLOR 1254 (30%), Method: PREINCUBATION) “inactive; negative”; (Test System: AMES SALMONELLA TYPHIMURIUM, Strain/Indicator: TA1537, Metabolic Activation: NONE, Method: PREINCUBATION) “inactive; negative”; (Test System: AMES SALMONELLA TYPHIMURIUM, Strain/Indicator: TA1537, Metabolic Activation: RAT, LIVER, S-9, AROCLOR 1254 (30%), Method: PREINCUBATION) “inactive; negative”.

For `[N-]=[N+]=NCC(O)Cn1cnc2c(N)ncnc21` (stereo not given), the mutagenic call under setting [3] was “active; positive”.

With `O=C1C2(Cl)C3(Cl)C4(Cl)C(Cl)(Cl)C5(Cl)C3(Cl)C1(Cl)C5(Cl)C24Cl` (stereo not given), the mutagenic call (End Point: IN VITRO CHROMOSOMAL ABERRATIONS, Test System: CHINESE HAMSTER OVARY CELLS, Metabolic Activation: NONE) is “inactive; negative” and the mutagenic call (End Point: IN VITRO CHROMOSOMAL ABERRATIONS, Test System: CHINESE HAMSTER OVARY CELLS, Metabolic Activation: RAT, LIVER, S-9, AROCLOR 1254) is “inactive; negative”.

Consider `C=C(C#N)C(=O)OCC`, for which the mutagenic call by setting is: under setting [3], “inactive; negative”; under setting [4], “inactive; negative”.

In the case of `CC(=O)N(O)c1ccc(O)cc1`, the mutagenic call (End Point: IN VITRO MICRONUCLEUS, Test System: RAT KIDNEY FIBROBLAST NRK-49F, Metabolic Activation: NONE) was “active; positive”.

For `COP(=S)(OC)Oc1ccc(N)c(C)c1`, the mutagenic call by setting is: under setting [5], “inactive; negative”; (Test System: AMES SALMONELLA TYPHIMURIUM, Strain/Indicator: TA98, Metabolic Activation: RAT, LIVER, S-9, AROCLOR 1254, Method: STANDARD PLATE) “inactive; negative”; under setting [3], “inactive; negative”; under setting [4], “active; positive”.

Regarding `Cn1c2ccccc2c2ccccc21`, the mutagenic call reads like this: under setting [5], “inactive; negative”; (Test System: AMES SALMONELLA TYPHIMURIUM, Strain/Indicator: TA98, Metabolic Activation: RAT LIVER S-9, AROCLOR 1254, Method: STANDARD PLATE) “inactive; negative”; under setting [3], “inactive; negative”; (Test System: AMES SALMONELLA TYPHIMURIUM, Strain/Indicator: TA100, Metabolic Activation: RAT LIVER S-9, AROCLOR 1254, Method: STANDARD PLATE) “active; positive”; (Test System: UDS PRIMARY RAT HEPATOCYTES, Strain/Indicator: THY-INCORP, Metabolic Activation: NONE, Method: AUTORADIOGRAPHY) “inactive; negative”.

`Cn1c2c3ccccc3nc-2cc2ccccc21`: the mutagenic call runs as follows: (End Point: IN VITRO MICRONUCLEUS, Test System: CHINESE HAMSTER V-79-MZ, Metabolic Activation: NONE) “active; positive”; (Test System: CHINESE HAMSTER V-79-MZ, Strain/Indicator: V-79 MZ (HPRT)/6-THIOGUANINE, Metabolic Activation: NONE) “inactive; negative”.

As for `O=C(O)c1cc(Cl)ccc1Cl`, the mutagenic call under setting [1] was “inactive; negative”; the mutagenic call (Test System: AMES SALMONELLA TYPHIMURIUM, Strain/Indicator: TA98, Metabolic Activation: RAT LIVER S-9, PCB, Method: PREINCUBATION) was “inactive; negative”; the mutagenic call under setting [2] is “inactive; negative”; the mutagenic call (Test System: AMES SALMONELLA TYPHIMURIUM, Strain/Indicator: TA100, Metabolic Activation: RAT LIVER S-9, PCB, Method: PREINCUBATION) is “inactive; negative”; the mutagenic call (Test System: AMES SALMONELLA TYPHIMURIUM, Strain/Indicator: TA104, Metabolic Activation: NONE, Method: PREINCUBATION) was “inactive; negative”; the mutagenic call (Test System: AMES SALMONELLA TYPHIMURIUM, Strain/Indicator: TA104, Metabolic Activation: RAT LIVER S-9, PCB, Method: PREINCUBATION) is “inactive; negative”. Besides, the mutagenic call is “inactive; negative” (Test System: E.COLI, Strain/Indicator: WP2 UVRA, Metabolic Activation: NONE, Method: PREINCUBATION) and “inactive; negative” (Test System: E.COLI, Strain/Indicator: WP2 UVRA, Metabolic Activation: RAT LIVER S-9, PCB, Method: PREINCUBATION).

Consider `CCCC(=O)N=c1sn(C(=O)CCC)c2ccc([N+](=O)[O-])cc12`, for which, for the setting “Test System: AMES SALMONELLA TYPHIMURIUM, Strain/Indicator: TA100, Metabolic Activation: S-9, Method: STANDARD PLATE”, the mutagenic call was “active; positive”.

Consider `Oc1c(Cl)cccc1Cl`, for which the mutagenic call was “inactive; negative” (Test System: CHINESE HAMSTER V-79, Strain/Indicator: V-79/6-THIOGUANINE, Metabolic Activation: CELL-MEDIATED, Method: STANDARD PLATE); “inactive; negative” (Test System: CHINESE HAMSTER V-79, Strain/Indicator: V-79/6-THIOGUANINE, Metabolic Activation: NONE, Method: STANDARD PLATE); “inactive; negative” (Test System: CHINESE HAMSTER V-79, Strain/Indicator: V-79/6-THIOGUANINE, Metabolic Activation: PRIMARY RAT HEPATOCYTES, Method: STANDARD PLATE).
